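Dose response: 5 concentrations. Exposure: 48 h. Format: 96-well plates. Endpoint: linear interpolation; highest concentration if not reached. TGI: concentration producing complete growth inhibition.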
Legend:
Test in all cases: NCI-60 cell line screen, 48 h
[1] = tested on: EKVX NSCLC
[2] = tested on: SK-MEL-28 melanoma
[3] = tested on: SNB-75 CNS
[4] = tested on: HS 578T breast
[5] = tested on: NCI-H23 lung
[6] = tested on: NCI-H226 lung
[7] = tested on: HT29 colon
[8] = tested on: MCF7 breast
[9] = tested on: HCT-116 colon
[10] = tested on: K-562 leukemia
[11] = tested on: SN12C renal
[12] = tested on: SF-539 CNS
[13] = tested on: SR leukemia
[14] = tested on: SW-620 colon
[15] = tested on: KM12 colon
[16] = tested on: OVCAR-8 ovarian
[17] = tested on: DU-145 prostate
[18] = tested on: SK-OV-3 ovarian
[19] = tested on: OVCAR-4 ovarian
[20] = tested on: TK-10 renal
[21] = tested on: OVCAR-5 ovarian
[22] = tested on: NCI/ADR-RES ovarian
[23] = tested on: COLO 205 colon
[24] = tested on: SF-268 CNS
[25] = tested on: MDA-N
[26] = tested on: MOLT-4 leukemia
[27] = tested on: CCRF-CEM leukemia
[28] = tested on: RPMI-8226 leukemia
[29] = tested on: HCC-2998 colon
[30] = tested on: IGROV1 ovarian
[31] = tested on: A498 renal
[32] = tested on: MDA-MB-435
[33] = tested on: RXF 393 renal
[34] = tested on: UACC-257 melanoma
[35] = tested on: M14 melanoma
[36] = tested on: 786-0 renal
[37] = tested on: NCI-H460 lung
[38] = tested on: UO-31 renal
[39] = tested on: U251 CNS
[40] = tested on: HOP-62 NSCLC
[41] = tested on: ACHN renal
[42] = tested on: SF-295 CNS
[43] = tested on: LOX IMVI melanoma
[44] = tested on: OVCAR-3 ovarian
[45] = tested on: HCT-15 colon
[46] = tested on: SK-MEL-5 melanoma
[47] = tested on: PC-3 prostate
[48] = tested on: CAKI-1 renal
[49] = tested on: HL-60(TB) leukemia
[50] = tested on: SNB-19 CNS
[51] = tested on: BT-549 breast
[52] = tested on: A549 NSCLC
[53] = tested on: MDA-MB-231 breast
[54] = tested on: MALME-3M melanoma
[55] = tested on: UACC-62 melanoma

Measured: TGI

CC(=O)NC1(C)CCC(C(C)(C)NC(C)=O)CC1 (stereo not given)
> 100 µM: [1] | [2] | [3] | [4] | [5] | [6] | [7] | [8] | [9] | [10] | [11] | [12] | [13] | [14] | [15] | [16] | [17] | [18] | [19] | [20] | [21] | [22] | [23] | [24] | [25] | [26] | [27] | [28] | [29] | [30] | [31] | [32] | [33] | [34] | [35] | [36] | [37] | [38] | [39] | [40] | [41] | [42] | [43] | [44] | [45] | [46] | [47] | [48] | [49] | [50] | [51] | [52] | [53] | [54] | [55]
